Reference: patent publication US5328902A, “7-(substituted)-9-[(substituted glycyl)amido]-6-demethyl-6-deoxytetracyclines” (American Cyanamid Co., priority 1992, dated 1994)
≈ marks a conversion by molar mass, not a printed value. Like-named read-outs stand apart in the source and are kept apart here.

Legend:
E. coli UBMS 88-1 Tet B = assay: microbe, parasite or virus in culture; assay type: cell-based; conditions: Escherichia coli, UBMS881TETB, 18 h
E. coli J3272 Tet sens. = assay: MIC, agar dilution; assay type: cell-based; conditions: Escherichia coli, 18 h, read-out: MIC
E. coli PRP1 Tet A = assay: microbe, parasite or virus in culture; assay type: cell-based; conditions: Escherichia coli, PRP1TETA, 18 h
[1] = tested on: E. coli MC 4100 TNIOC Tet B; assay: microbe, parasite or virus in culture; assay type: cell-based; conditions: Escherichia coli, 18 h
E. coli J3272 Tet C = assay: microbe, parasite or virus in culture; assay type: cell-based; conditions: Escherichia coli, J3272TETC, 18 h
E. coli UBMS 89-1 Tet M = assay: microbe, parasite or virus in culture; assay type: cell-based; conditions: Escherichia coli, UBMS891TETM, 18 h
[2] = tested on: E. coli UBMS 89-2 Tet sens.; assay: MIC, agar dilution; assay type: cell-based; conditions: Escherichia coli, 18 h
E. coli J2175 = assay: MIC, agar dilution; assay type: cell-based; conditions: Escherichia coli, J2175, 18 h
E. coli BAJ9003 IMP MUT = assay: microbe, parasite or virus in culture; assay type: cell-based; conditions: Escherichia coli, BAJ9003IMPMUT, 18 h
E. coli UBMS 90-4 Tet M = assay: microbe, parasite or virus in culture; assay type: cell-based; conditions: Escherichia coli, UBMS904TETM, 18 h
E. coli UBMS 90-5 = assay: MIC, agar dilution; assay type: cell-based; conditions: Escherichia coli, UBMS905, 18 h, read-out: MIC
E. coli #311 (MP) = assay: MIC, agar dilution; assay type: cell-based; conditions: Escherichia coli, 18 h
E. coli ATCC 25922 = assay: MIC, agar dilution; assay type: cell-based; conditions: Escherichia coli, ATCC25922, 18 h
E. coli J3272 Tet D = assay: microbe, parasite or virus in culture; assay type: cell-based; conditions: Escherichia coli, J3272TETD, 18 h
S. mariescens FPOR 8733 = assay: MIC, agar dilution; assay type: cell-based; conditions: 18 h, read-out: MIC
[3] = tested on: Ps. acruginosa ATCC 27853; assay: MIC, agar dilution; assay type: cell-based; conditions: 18 h
S. aureus NEMC 8769 = assay: MIC, agar dilution; assay type: cell-based; conditions: Staphylococcus aureus, NEMC8769, 18 h
S. aureus UBMS 88-4 = assay: MIC, agar dilution; assay type: cell-based; conditions: Staphylococcus aureus, UBMS884, 18 h
[4] = tested on: S. aureus UBMS 88-5 Tet M; assay: microbe, parasite or virus in culture; assay type: cell-based; conditions: Staphylococcus aureus, UBMS885TETM, 18 h
[5] = tested on: S. aureus UBMS 88-7 Tet K; assay: microbe, parasite or virus in culture; assay type: cell-based; conditions: Staphylococcus aureus, UBMS887TETK, 18 h
[6] = tested on: S. aureus UBMS 90-1 Tet M; assay: microbe, parasite or virus in culture; assay type: cell-based; conditions: Staphylococcus aureus, UBMS901TETM, 18 h
S. aureus UBMS 90-3 = assay: MIC, agar dilution; assay type: cell-based; conditions: Staphylococcus aureus, UBMS903, 18 h
[7] = tested on: S. aureus UBMS 90-2 Tet M; assay: microbe, parasite or virus in culture; assay type: cell-based; conditions: Staphylococcus aureus, UBMS902TETM, 18 h
S. aureus IVES 2943 = assay: MIC, agar dilution; assay type: cell-based; conditions: Staphylococcus aureus, IVES2943, 18 h
S. aureus ROSE (MP) = assay: MIC, agar dilution; assay type: cell-based; conditions: Staphylococcus aureus, 18 h
S. aureus SMITH (MP) = assay: MIC, agar dilution; assay type: cell-based; conditions: Staphylococcus aureus, 18 h
S. aureus IVES 1 983 = assay: MIC, agar dilution; assay type: cell-based; conditions: Staphylococcus aureus, IVES1983, 18 h
S. aureus ATCC 29213 = assay: MIC, agar dilution; assay type: cell-based; conditions: Staphylococcus aureus, ATCC29213, 18 h
[8] = tested on: S. hemolyticus AVHAH 88-3; assay: MIC, agar dilution; assay type: cell-based; conditions: Streptococcus pyogenes, AVHAH883, 18 h
Enterococcus 12201 = assay: MIC, agar dilution; assay type: cell-based; conditions: Enterococcus, 12201, 18 h
E. faecalis ATCC 29212 = assay: MIC, agar dilution; assay type: cell-based; conditions: Enterococcus faecalis, ATCC29212, 18 h
[9] = tested on: Wild Type S30 (wild type ribosomes, E. coli strain MRE600, tetracycline sensitive); assay: E. coli in vitro protein translation system, wild type S30

| Compound | MIC (E. coli UBMS 88-1 Tet B) [µg/mL] | MIC (E. coli J3272 Tet sens.) [µg/mL] | MIC [1] [µg/mL] | MIC (E. coli J3272 Tet C) [µg/mL] | MIC (E. coli UBMS 89-1 Tet M) [µg/mL] | MIC [2] [µg/mL] | MIC (E. coli J2175) [µg/mL] | MIC (E. coli BAJ9003 IMP MUT) [µg/mL] | MIC (E. coli UBMS 90-5) [µg/mL] | MIC (E. coli #311 (MP)) [µg/mL] | MIC (E. coli ATCC 25922) [µg/mL] | MIC (E. coli J3272 Tet D) [µg/mL] | MIC (S. mariescens FPOR 8733) [µg/mL] | MIC [3] [µg/mL] | MIC (S. aureus UBMS 88-4) [µg/mL] | MIC [4] [µg/mL] | MIC [6] [µg/mL] | MIC (S. aureus UBMS 90-3) [µg/mL] | MIC [7] [µg/mL] | MIC (S. aureus IVES 2943) [µg/mL] | also measured |
| --- | --- | --- | --- | --- | --- | --- | --- | --- | --- | --- | --- | --- | --- | --- | --- | --- | --- | --- | --- | --- | --- |
| CN(C)[C@@H]1C(=O)C(C(N)=O)=C(O)[C@@]2(O)C(=O)C3=C(O)c4c(O)cccc4[C@@](C)(O)[C@H]3C[C@@H]12 [N, Tetracycline] | > 32 | 0.5 (≈ 1.13 µM) | > 32 | > 32 | 8 (≈ 18 µM) | 1 (≈ 2.25 µM) | 1 (≈ 2.25 µM) | 0.25 (≈ 0.563 µM) | 1 (≈ 2.25 µM) | 1 (≈ 2.25 µM) | 0.5 (≈ 1.13 µM) | > 32 | 32 (≈ 72 µM) | 8 (≈ 18 µM) | 0.06 (≈ 0.135 µM) | > 32 | 32 (≈ 72 µM) | 0.06 (≈ 0.135 µM) | 32 (≈ 72 µM) | > 32 | MIC (E. coli PRP1 Tet A): 32 µg/mL (≈ 72 µM); MIC (E. coli UBMS 90-4 Tet M): 16 µg/mL (≈ 36 µM); MIC (S. aureus NEMC 8769): 0.03 µg/mL (≈ 0.0675 µM); MIC [5]: > 32 µg/mL; MIC (S. aureus ROSE (MP)): > 32 µg/mL; MIC (S. aureus SMITH (MP)): 0.06 µg/mL (≈ 0.135 µM); MIC (S. aureus IVES 1 983): > 32 µg/mL; MIC (S. aureus ATCC 29213): 0.06 µg/mL (≈ 0.135 µM); MIC [8]: 0.5 µg/mL (≈ 1.13 µM); MIC (Enterococcus 12201): 32 µg/mL (≈ 72 µM); MIC (E. faecalis ATCC 29212): 8 µg/mL (≈ 18 µM) |
| CN(C)c1ccc(O)c2c1C[C@H]1C[C@H]3[C@H](N(C)C)C(O)=C(C(N)=O)C(=O)[C@@]3(O)C(O)=C1C2=O [O, Minocycline, reference compound] | 16 (≈ 35 µM) | 0.5 (≈ 1.09 µM) | 8 (≈ 17.5 µM) | 2 (≈ 4.37 µM) | 8 (≈ 17.5 µM) | 0.5 (≈ 1.09 µM) | 0.5 (≈ 1.09 µM) | 0.03 (≈ 0.0656 µM) | 0.5 (≈ 1.09 µM) | 0.25 (≈ 0.546 µM) | 0.5 (≈ 1.09 µM) | 8 (≈ 17.5 µM) | 2 (≈ 4.37 µM) | 8 (≈ 17.5 µM) | 0.03 (≈ 0.0656 µM) | 4 (≈ 8.74 µM) | 4 (≈ 8.74 µM) | 0.03 (≈ 0.0656 µM) | 2 (≈ 4.37 µM) | 2 (≈ 4.37 µM) | MIC (S. aureus NEMC 8769; S. aureus NEMC 8769, read-out: MIC): < 0.015 µg/mL; MIC (S. aureus ROSE (MP)): 0.5 µg/mL (≈ 1.09 µM); MIC (S. aureus SMITH (MP); S. aureus SMITH (MP), read-out: MIC): 0.03 µg/mL (≈ 0.0656 µM); MIC (S. aureus IVES 1 983): 2 µg/mL (≈ 4.37 µM); MIC (S. aureus ATCC 29213; S. aureus ATCC 29213, read-out: MIC): 0.03 µg/mL (≈ 0.0656 µM); MIC (E. faecalis ATCC 29212): 1 µg/mL (≈ 2.19 µM); % Inhibition Wild Type S30 ([9]; Conc. 0.06 mg/ml): 78%; % Inhibition Wild Type S30 ([9]; Conc. 1.0 mg/ml): 98%; inhibition of protein synthesis occuring on wild type ribosomes ([9]; coupled transcription and translation system): effectively inhibit protein synthesis |
